From article PMC10914731, “Homo-BacPROTAC-induced degradation of ClpC1 as a strategy against drug-resistant mycobacteria” (Nature Communications, 2024)
Several values for one entry are separate records, joined by “and”; a condition that tells them apart may be missing. Equal values may be shown once. Read-outs that look alike come from different tables or passages of the source. *1 amine or outer side, *2 acyl side, *3 side chain or, on linkers, in order; H or OH if unused. Where a SMILES comes first, the peptide text is derived from it. Bridges are numbered along the chain shown (N, C = ends). Roman numbers before positions name the chains, in order. [ ]: non-standard residue; d: D form. X9 = C=CC(C)(C)n1cc(C[C@@H](C(=O)[*:2])N(C)[*:1])c2ccccc21; X10 = CN([C@@H](Cc1cn(CC=[*:3])c2ccccc12)C(=O)[*:2])[*:1]; Ala(3R-Me,3-isobutenyl) = CC(C)=C[C@@H](C)[C@H](N)C(=O)O; NMeLeu(5-OH,4R) = CN[C@@H](C[C@@H](C)CO)C(=O)O; Phe(βR-OMe) = CO[C@H](c1ccccc1)[C@H](N)C(=O)O; NMeL = CN[C@@H](CC(C)C)C(=O)O

How the values were obtained:
[1] = biological target: ClpC1 NTD protein (M. tuberculosis) (Mycobacterium tuberculosis, UniProt P9WPC9); assay: biochemical; type: binding
Caco-2 monolayers = assay: in vitro
Source text: Supplementary Table 1. Structure-Activity Relationships part 1 (SPR, Caco-2) […]
SPR. Mean values ± standard deviation. Footnotes indicate the number of measurements performed for the respective compound: a) n = […]
[5] Permeability across Caco-2 monolayers in P(A−B): apical to basolateral and P(B−A): basolateral to apical direction (values reported in 10-
6 cm s-1); efflux ratio = P(B−A)/P(A−B); Int. perm: mean value of P(A−B) and P(B−A). […] Influence of Trp-Nα methylation on P(A-B) and efflux
ratio. Bold: positive influence.

[2] = Hepatocyte stability, mice; type: in vitro ADME
Procedure: (§1) Cryopreserved hepatocytes are incubated in an appropriate buffer system containing 50% species serum. Following an acclimation period (15–30 min) in an incubator (37 °C, 5−10% CO2, 85–95% humidity) the test compound is added to the hepatocyte suspension (pH 7.4, typical cell density of about 1 million cells/mL; final concentration of test compound is 1 µM, final DMSO concentration <0.05% v/v). The cells are incubated for up to 6 h and samples are taken at 6 different time points. Samples are then quenched with acetonitrile and pelleted by centrifugation. The remaining amount of parent compound in the supernatants is then analysed by HPLC-MS/MS. Clearance is calculated from compound half-lives using the well-stirred liver model and is converted to clearance stated as % of the liver blood flow (% Qh).

[3] = type: in vitro ADME, Rat
Procedure: as §1

[4] = type: in vitro ADME, Human
Procedure: as §1

[5] = biological target: His6-tagged ClpC1-NTD substrate, M. smegmatis ClpC1P1P2 (UniProt A0R574+P9WPC9); assay: biochemical; type: biochemical; conditions: Msm
[6] = biological target: ClpC1-NTD substrate, M. tuberculosis ClpC1P1P2 (Mycobacterium tuberculosis, UniProt P9WPC9); assay: biochemical; type: biochemical; conditions: Mtb; mean of the measurements; read-out: DC50, Mean
[7] = read-out: ClpC1-NTD KD Mean ± SD

Row | SMILES | koff ClpC1-NTD [1] | Kd [1, 7] [nM] | Kd ([1]; read-out: KD ClpC1-NTD) | Caco-2 Int. Perm (Caco-2 monolayers; Caco-2) | Caco-2 permeability P (B-A) (Caco-2 monolayers; Caco-2) | Permeability Correlation P (A-B) (Caco-2 monolayers; Caco-2) | Hepatocyte Stability Mouse QH [2] [%] | Hepatocyte Rat [3] [%Qh] | Hepatocyte Stability Rat QH [3] [%] | Hepatocyte Stability Human QH [4] [%] | also measured
1 | CO[C@H](c1ccccc1)[C@@H]1NC(=O)[C@H](C)NC(=O)[C@H](C[C@@H](C)CO)N(C)C(=O)[C@H](Cc2cn(C/C=C/Cn3cc(C[C@H]4C(=O)N(C)[C@@H](C[C@@H](C)CO)C(=O)N[C@@H](C)C(=O)N[C@@H]([C@H](OC)c5ccccc5)C(=O)N[C@@H](C(C)C)C(=O)N(C)[C@@H](CC(C)C)C(=O)N[C@@H](C(C)C)C(=O)N4C)c4ccccc43)c3ccccc23)N(C)C(=O)[C@H](C(C)C)NC(=O)[C@H](CC(C)C)N(C)C(=O)[C@H](C(C)C)NC1=O [Compound 28] (I: cyclo(A[Phe(βR-OMe)]V[NMeL]V[X10][NMeLeu(5-OH,4R)]) / II: cyclo(A[Phe(βR-OMe)]V[NMeL]V[X10][NMeLeu(5-OH,4R)]); staple (E) I:6-II:6) | 1E-3 1E-3 1/s | 1.8 ± 0.1 | 1.73 nM and 1.92 nM | 0.66 10-6 cm s-1 | < 0.4 10-6 cm s-1 | 0.4 | 15.001 | 6 | 6.357 | 12.386 | koff ClpC1-NTD Mean ± SD [1]: 0.001 ± 6e-05 s⁻¹; CACO permeability PEBA (Caco-2 monolayers; Caco-2): <0.00000039 cm/sec; Caco-2 permeability P (A-B) (Caco-2 monolayers; Caco-2): 0.9 10-6 cm s-1; Hepatocyte Mice ([2]; clearance in hepatocytes): 15 %Qh
2 | C=CC(C)(C)n1cc(C[C@H]2C(=O)N(C)[C@@H](C[C@@H](C)CO)C(=O)N[C@@H](C)C(=O)N[C@@H]([C@H](OC)c3ccccc3)C(=O)N[C@@H](C(C)C)C(=O)N(C)[C@@H](CC(C)C)C(=O)N[C@@H]([C@H](C)C=C(C)C)C(=O)N2C)c2ccccc21 [Compound 23] (cyclo(A[Phe(βR-OMe)]V[NMeL][Ala(3R-Me,3-isobutenyl)][X9][NMeLeu(5-OH,4R)])) | 1E-2 1E-1 1/s | 12.1 ± 0.3 | 11.9 nM and 12.3 nM | 5.6 10-6 cm s-1 | 7.3 10-6 cm s-1 | 3 | 15.001 | 57 | 57.093 | 12.924 | Caco-2 Efflux ratio (Caco-2 monolayers; Caco-2): 1.9; Permeability Correlation Ratio (Caco-2 monolayers; Caco-2): 1.57; Hepatocyte Mice [2]: 15 %Qh; Hepatocyte Human [4]: 13 %Qh
3 | COC(c1ccccc1)C1NC(=O)C(C)NC(=O)C(CC(C)CO)N(C)C(=O)C(Cc2cn(CCCCn3cc(CC4NC(=O)C(C(C)C)NC(=O)C(CC(C)C)N(C)C(=O)C(C(C)C)NC(=O)C(C(OC)c5ccccc5)NC(=O)C(C)NC(=O)C(CC(C)CO)N(C)C4=O)c4ccccc43)c3ccccc23)NC(=O)C(C(C)C)NC(=O)C(CC(C)C)N(C)C(=O)C(C(C)C)NC1=O (stereo not drawn) [Compound 16] | – | – | – | – | – | – | – | – | – | – | Kd ([1]; SPR (Supplementary Table 1), read-out: KD ClpC1-NTD Mean ± SD): 0.5 ± 0.2 nM; Kd ([1]; SPR, single independent measurements, read-out: KD ClpC1-NTD): 0.328 nM and 0.587 nM; CACO permeability PEAB (Caco-2 monolayers; apical to basolateral): <0.0000014 cm/sec; CACO permeability PEBA (Caco-2 monolayers; basolateral to apical): <0.0000011 cm/sec; Caco-2 Int. Perm (Caco-2 monolayers; mean value of P(A−B) and P(B−A)): 1.3 10-6 cm s-1; DC50 ([5]; Measurement 1-6, read-out: DC50, single measurements): 6500 nM and 7600 nM and 7900 nM and 5900 nM; DC50 ([5]; mean of the measurements, read-out: DC50, Mean): 7000 nM; DC50 [6]: 10700 nM
